In ChEMBL document CHEMBL1201862, “PubChem BioAssay data set” (2004):
Calls of active or inactive are those of the source.

How the values were obtained:
Phospholipase D1 = Phospholipase D1 (Homo sapiens, UniProt Q13393); test: cellular phospholipase D1 inhibition IC50 – cell-based, dose response (AID 602151); assay type: functional;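 further: cellular PLD1 assay in Calu-1 cells stimulated with PMA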
Phospholipase D2 = Phospholipase D2 (Homo sapiens, UniProt O14939); test: cellular phospholipase D2 inhibition IC50 – cell-based, dose response (AID 602147); assay type: functional;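 further: cellular assay in HEK293 cells overexpressing GFP-tagged PLD2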
Escherichia coli [1] = test: microbe, parasite or virus in culture
Escherichia coli [2] = test: microbe, parasite or virus in culture; remark: listed apart in the source
[3] = fluconazole-exposed Candida albicans growth modulators – fluorescence, retest, confirmation (AID 2467); assay type: functional, cell-based
[4] = NIH-3T3 fibroblast cytotoxicity, dose response, cytotoxicity control, cell-based, fluorescence, Alamar Blue, secondary assay (AID 2327); assay type: functional;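 further: NIH-3T3 mouse fibroblasts cultured with fluconazole at 8 µg/mL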
[5] = target: ATP-dependent molecular chaperone HSP82 (Candida albicans (strain WO-1) (Yeast), UniProt C4YTQ8); test: steroid-induced GRE reporter decrease in yeast – S. cerevisiae, luminescence, Hsp90 inhibitor project, dose response (AID 2400); assay type: functional, cell-based;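 further: beta-galactosidase luminescence from glucocorticoid response element reporter as proxy for Hsp90 function; inhibitor potency where signal loss means Hsp90 inhibition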
[6] = target: Serine/threonine-protein phosphatase (Candida dubliniensis (strain CD36 / CBS 7987 / NCPF 3949 / NRRLY-17841) (Yeast), UniProt B9W6M3); test: blockers of CaCl2-induced CDRE-lacZ signaling – S. cerevisiae, luminescence, secondary, dose response (AID 2388); assay type: functional, cell-based;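 further: yeast reporter cells carrying a calcineurin-responsive lacZ construct stimulated with calcium chloride; luminescent beta-galactosidase reporter signal in whole cells rather than isolated phosphatase activity; potency for inhibition where a drop in reporter signal means calcineurin blockade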
[7] = target: Type-1 angiotensin II receptor (Homo sapiens, UniProt P30556); test: antagonism of angiotensin II type 1 receptor – cell-based, uHTS hits, selectivity assay for APJ receptor antagonist project, dose response (AID 463214); assay type: functional;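 further: antagonist potency against angiotensin II stimulated AT1 response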
Beta-galactosidase = Beta-galactosidase (Escherichia coli, UniProt Q8VNN2); test: PubChem AID 485352; assay type: functional
Vero = test: viability of Vero cells under compound – cytotoxicity control for flavivirus capping enzyme inhibitors (AID 588742); assay type: functional; details: Chlorocebus sabaeus
Genome polyprotein = Genome polyprotein (dengue virus type 2, UniProt P29990); test: flavivirus cap methylation enzyme inhibition – biochemical, confirmation dose response, primary screen (AID 588689); assay type: functional

Phospholipase D2, sequence (O14939 whole entry): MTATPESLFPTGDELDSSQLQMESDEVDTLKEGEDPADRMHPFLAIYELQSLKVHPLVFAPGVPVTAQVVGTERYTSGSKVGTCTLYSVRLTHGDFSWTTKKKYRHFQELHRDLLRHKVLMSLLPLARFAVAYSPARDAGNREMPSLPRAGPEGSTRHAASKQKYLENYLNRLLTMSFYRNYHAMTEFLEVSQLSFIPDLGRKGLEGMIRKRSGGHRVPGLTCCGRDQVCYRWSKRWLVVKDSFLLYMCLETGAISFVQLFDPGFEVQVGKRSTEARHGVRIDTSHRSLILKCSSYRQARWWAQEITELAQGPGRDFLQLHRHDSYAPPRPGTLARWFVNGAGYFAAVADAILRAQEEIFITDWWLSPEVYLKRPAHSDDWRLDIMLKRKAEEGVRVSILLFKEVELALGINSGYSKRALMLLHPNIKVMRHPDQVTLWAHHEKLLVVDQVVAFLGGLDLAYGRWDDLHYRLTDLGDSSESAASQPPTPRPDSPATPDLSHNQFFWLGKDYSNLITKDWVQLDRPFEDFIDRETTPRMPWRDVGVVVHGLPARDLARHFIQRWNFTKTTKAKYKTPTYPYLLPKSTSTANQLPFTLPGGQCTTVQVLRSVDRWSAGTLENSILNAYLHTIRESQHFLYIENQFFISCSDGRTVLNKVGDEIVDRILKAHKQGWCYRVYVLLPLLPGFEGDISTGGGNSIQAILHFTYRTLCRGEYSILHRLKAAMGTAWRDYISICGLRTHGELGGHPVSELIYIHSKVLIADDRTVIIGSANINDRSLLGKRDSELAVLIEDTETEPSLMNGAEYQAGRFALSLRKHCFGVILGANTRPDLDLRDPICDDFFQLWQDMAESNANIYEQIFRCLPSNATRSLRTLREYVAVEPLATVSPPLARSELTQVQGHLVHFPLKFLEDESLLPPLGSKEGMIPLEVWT
Beta-galactosidase, sequence (Q8VNN2 whole entry): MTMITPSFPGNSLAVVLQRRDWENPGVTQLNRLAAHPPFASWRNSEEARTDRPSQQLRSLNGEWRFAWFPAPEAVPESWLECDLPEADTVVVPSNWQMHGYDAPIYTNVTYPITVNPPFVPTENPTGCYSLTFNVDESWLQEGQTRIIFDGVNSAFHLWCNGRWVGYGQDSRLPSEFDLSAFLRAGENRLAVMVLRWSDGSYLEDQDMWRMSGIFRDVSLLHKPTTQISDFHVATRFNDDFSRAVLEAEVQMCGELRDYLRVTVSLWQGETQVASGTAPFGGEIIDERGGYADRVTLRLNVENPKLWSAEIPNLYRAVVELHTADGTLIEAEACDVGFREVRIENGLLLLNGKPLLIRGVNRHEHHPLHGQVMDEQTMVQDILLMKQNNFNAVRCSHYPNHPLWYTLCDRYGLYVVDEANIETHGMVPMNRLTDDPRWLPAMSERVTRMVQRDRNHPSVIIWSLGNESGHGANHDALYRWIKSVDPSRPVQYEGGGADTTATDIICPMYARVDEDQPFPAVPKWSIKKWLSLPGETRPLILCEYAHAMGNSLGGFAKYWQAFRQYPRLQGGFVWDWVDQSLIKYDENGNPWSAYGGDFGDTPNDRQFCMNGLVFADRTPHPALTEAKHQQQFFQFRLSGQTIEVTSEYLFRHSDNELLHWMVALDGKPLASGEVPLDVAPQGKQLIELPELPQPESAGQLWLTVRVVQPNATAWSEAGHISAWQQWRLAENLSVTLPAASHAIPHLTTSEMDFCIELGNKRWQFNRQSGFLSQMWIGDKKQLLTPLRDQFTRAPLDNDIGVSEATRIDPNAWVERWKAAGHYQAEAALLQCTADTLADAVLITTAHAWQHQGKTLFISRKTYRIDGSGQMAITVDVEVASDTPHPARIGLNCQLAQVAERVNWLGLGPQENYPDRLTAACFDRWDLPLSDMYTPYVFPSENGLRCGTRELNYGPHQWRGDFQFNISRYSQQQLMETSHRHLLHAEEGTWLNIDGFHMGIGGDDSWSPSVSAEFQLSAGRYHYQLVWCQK
Type-1 angiotensin II receptor, sequence (P30556 whole entry): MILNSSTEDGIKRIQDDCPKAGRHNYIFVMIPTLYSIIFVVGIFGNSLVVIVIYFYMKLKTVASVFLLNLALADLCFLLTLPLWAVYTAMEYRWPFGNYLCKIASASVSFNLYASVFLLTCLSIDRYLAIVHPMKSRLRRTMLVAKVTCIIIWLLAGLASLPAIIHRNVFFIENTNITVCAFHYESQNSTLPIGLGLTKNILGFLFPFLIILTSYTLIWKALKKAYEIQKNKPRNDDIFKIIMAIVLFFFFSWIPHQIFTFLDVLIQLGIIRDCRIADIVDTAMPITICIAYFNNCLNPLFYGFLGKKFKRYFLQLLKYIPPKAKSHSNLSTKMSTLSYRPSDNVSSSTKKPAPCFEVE
Phospholipase D1, sequence (Q13393 whole entry): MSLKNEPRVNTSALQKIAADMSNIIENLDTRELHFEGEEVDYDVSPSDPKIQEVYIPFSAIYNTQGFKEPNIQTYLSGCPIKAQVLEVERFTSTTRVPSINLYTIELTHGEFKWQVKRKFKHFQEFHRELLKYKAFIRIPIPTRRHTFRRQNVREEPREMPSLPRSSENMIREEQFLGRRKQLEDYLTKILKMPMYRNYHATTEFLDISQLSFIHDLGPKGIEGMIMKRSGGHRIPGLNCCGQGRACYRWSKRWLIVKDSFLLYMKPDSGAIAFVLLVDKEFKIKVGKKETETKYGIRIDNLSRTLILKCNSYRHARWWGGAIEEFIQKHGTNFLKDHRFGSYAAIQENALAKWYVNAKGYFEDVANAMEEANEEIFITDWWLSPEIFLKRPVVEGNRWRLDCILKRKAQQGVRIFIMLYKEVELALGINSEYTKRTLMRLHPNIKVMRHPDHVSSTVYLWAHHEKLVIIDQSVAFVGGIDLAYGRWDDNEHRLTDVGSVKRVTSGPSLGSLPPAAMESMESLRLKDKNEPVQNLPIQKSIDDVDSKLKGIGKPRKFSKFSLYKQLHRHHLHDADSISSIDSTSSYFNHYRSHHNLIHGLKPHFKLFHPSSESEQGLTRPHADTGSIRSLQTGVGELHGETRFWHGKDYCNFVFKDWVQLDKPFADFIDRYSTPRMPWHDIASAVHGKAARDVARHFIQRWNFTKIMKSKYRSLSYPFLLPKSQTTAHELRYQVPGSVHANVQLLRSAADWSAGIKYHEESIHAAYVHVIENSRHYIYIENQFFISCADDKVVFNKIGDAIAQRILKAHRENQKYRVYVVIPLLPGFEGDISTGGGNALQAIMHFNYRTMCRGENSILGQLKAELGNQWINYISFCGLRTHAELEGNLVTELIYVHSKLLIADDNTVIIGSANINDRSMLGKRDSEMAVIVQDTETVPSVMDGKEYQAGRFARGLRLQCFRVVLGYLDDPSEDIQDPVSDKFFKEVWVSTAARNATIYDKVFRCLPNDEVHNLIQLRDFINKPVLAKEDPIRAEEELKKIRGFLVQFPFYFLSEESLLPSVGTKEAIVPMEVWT
ATP-dependent molecular chaperone HSP82, sequence (C4YTQ8 whole entry): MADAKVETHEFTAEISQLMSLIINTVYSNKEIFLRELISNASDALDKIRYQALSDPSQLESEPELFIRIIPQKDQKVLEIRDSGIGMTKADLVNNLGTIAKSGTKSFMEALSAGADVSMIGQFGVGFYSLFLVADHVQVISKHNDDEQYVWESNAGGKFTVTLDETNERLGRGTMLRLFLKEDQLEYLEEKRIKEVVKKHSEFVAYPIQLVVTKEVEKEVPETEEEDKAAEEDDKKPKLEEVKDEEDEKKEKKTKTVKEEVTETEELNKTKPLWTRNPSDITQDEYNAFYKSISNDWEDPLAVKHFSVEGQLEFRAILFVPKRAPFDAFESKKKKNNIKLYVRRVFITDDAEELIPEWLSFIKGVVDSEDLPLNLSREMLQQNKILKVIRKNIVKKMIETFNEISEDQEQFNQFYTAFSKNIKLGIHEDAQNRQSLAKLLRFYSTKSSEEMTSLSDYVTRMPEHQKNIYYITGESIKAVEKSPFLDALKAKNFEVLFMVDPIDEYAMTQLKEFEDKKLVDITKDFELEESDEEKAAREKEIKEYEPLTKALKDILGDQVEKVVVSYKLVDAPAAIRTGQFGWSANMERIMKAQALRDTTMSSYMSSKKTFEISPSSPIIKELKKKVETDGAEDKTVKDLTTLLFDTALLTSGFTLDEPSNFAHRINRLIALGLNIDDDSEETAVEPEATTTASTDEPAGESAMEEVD
Serine/threonine-protein phosphatase, sequence (B9W6M3 whole entry): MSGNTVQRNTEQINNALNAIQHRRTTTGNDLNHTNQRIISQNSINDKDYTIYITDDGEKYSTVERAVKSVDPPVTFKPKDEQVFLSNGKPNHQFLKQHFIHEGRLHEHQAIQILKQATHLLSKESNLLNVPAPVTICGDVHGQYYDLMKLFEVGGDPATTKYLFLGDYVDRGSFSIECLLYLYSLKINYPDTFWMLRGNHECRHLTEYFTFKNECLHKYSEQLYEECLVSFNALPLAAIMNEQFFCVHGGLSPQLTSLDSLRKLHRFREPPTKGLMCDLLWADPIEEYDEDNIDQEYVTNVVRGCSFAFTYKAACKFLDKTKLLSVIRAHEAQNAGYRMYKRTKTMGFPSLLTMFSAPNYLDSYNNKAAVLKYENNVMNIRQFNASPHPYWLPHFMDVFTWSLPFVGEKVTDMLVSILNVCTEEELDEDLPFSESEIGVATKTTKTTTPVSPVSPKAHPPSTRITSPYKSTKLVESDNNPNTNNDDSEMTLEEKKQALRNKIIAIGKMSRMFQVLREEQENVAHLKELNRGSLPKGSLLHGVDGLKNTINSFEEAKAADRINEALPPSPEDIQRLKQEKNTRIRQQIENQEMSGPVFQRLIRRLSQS

CC(C)[C@@H](CN1CCC2(CC1)C(=O)NCN2c1ccccc1)NC(=O)c1cnc2ccccc2c1
IC50 (Phospholipase D1): 90 nM (active) | IC50 (Phospholipase D2): 250 nM (active)

CCC[C@@H]1C[C@@]1(CCC)[C@@H](NC(=O)c1ccccc1)c1ccc(C(=O)OC)cc1
AC50 (Escherichia coli [1]): 21.2 µM (active) | AC50 (Escherichia coli [2]): > 380 µM (inactive)

CCOc1ccc(NC(=O)c2cn(-c3ccc(OCC)cc3)c(=O)c3cc(OC)c(OC)cc23)cc1
EC50 [3]: 789 nM (active) | EC50 [4]: > 160 µM (inconclusive) | EC50 [5]: > 160 µM (inactive) | EC50 [6]: > 180 µM (inactive)

Cc1ccc(C(=O)CNc2ccccc2)cc1
IC50 [7]: 9.14 µM (active) | EC50 (Beta-galactosidase): > 40 µM (inactive)

CCOC(=O)c1c(NC(=O)/C=C/C(=O)O)sc(C)c1-c1ccc(Cl)cc1
CC50 (Vero): > 40 µM (active) | IC50 (Genome polyprotein): 43 µM (active)
